{"source": "ChEMBL document CHEMBL4507324", "about": "(2021)", "conditions_in_all_cases": "Compound concentration 100.0 nM", "key": {"[1]": {"target": "MAP kinase-interacting serine/threonine-protein kinase 2 (Homo sapiens) (UniProt Q9HBH9)", "sequence (Q9HBH9 whole entry, looked up)": "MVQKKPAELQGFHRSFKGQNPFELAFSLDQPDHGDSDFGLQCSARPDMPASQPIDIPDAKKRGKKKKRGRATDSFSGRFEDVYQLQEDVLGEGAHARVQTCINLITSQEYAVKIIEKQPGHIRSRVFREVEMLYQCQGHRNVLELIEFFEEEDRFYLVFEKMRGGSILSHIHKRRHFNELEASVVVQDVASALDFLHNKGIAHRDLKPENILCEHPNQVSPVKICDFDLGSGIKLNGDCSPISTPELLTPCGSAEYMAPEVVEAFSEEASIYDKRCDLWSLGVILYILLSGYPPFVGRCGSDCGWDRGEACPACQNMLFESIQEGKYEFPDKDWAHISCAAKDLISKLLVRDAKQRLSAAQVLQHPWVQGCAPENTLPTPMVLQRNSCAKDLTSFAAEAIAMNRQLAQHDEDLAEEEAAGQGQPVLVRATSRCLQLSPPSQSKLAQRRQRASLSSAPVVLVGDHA"}, "[2]": {"tested_on": "Epidermal growth factor receptor (Homo sapiens), P00533 [UNDEFINED MUTATION]", "sequence (P00533 whole entry, looked up, change not shown)": "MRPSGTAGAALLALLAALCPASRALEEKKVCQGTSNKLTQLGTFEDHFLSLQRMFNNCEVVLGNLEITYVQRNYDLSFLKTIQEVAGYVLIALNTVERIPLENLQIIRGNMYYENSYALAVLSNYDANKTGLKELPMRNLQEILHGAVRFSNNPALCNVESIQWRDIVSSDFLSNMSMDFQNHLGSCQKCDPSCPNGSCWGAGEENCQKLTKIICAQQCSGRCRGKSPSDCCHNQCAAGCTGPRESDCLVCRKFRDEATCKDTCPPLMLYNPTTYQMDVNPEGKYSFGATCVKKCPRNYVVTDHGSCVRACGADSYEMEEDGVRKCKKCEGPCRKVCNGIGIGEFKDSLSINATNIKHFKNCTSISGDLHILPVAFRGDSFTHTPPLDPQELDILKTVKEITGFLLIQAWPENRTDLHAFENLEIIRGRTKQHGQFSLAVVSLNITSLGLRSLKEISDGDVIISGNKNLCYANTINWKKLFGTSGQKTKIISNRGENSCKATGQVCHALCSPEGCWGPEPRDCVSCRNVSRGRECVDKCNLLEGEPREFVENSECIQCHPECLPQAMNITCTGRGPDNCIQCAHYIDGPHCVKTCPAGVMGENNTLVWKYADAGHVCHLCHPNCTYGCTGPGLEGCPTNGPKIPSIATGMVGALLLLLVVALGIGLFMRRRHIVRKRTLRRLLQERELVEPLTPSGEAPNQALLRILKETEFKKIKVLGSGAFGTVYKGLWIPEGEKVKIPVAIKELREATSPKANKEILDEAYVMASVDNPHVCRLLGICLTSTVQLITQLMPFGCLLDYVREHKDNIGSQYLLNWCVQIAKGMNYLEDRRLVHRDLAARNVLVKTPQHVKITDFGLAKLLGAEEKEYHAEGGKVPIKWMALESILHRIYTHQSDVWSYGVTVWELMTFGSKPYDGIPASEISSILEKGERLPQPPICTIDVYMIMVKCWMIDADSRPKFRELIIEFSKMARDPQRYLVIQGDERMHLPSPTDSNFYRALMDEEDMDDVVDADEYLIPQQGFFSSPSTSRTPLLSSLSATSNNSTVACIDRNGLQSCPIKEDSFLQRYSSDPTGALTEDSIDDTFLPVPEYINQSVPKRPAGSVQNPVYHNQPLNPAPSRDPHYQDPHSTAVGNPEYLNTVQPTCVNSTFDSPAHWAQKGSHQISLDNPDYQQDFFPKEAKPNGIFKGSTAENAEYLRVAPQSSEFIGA"}, "[3]": {"target": "Serine/threonine-protein kinase WNK1 (Homo sapiens) (UniProt Q9H4A3)"}, "[4]": {"target": "Serine/threonine-protein kinase MRCK alpha (Homo sapiens) (UniProt Q5VT25)"}, "[5]": {"target": "Mitogen-activated protein kinase kinase kinase 20 (Homo sapiens) (UniProt Q9NYL2)"}, "[6]": {"target": "Interferon-induced, double-stranded RNA-activated protein kinase (Homo sapiens) (UniProt P19525)"}, "[7]": {"tested_on": "Mast/stem cell growth factor receptor Kit (Homo sapiens), P10721 [L576P]"}, "[8]": {"target": "Serine/threonine-protein kinase Nek7 (Homo sapiens) (UniProt Q8TDX7)"}, "[9]": {"target": "Serine/threonine-protein kinase PLK1 (Homo sapiens) (UniProt P53350)"}, "[10]": {"target": "Activin receptor type-1-like (Homo sapiens) (UniProt P37023)"}, "[11]": {"target": "Cyclin-G-associated kinase (Homo sapiens) (UniProt O14976)"}, "[12]": {"target": "Casein kinase I isoform delta (Homo sapiens) (UniProt P48730)"}, "[13]": {"target": "Phosphatidylinositol 3-kinase C2 domain-containing subunit gamma (Homo sapiens) (UniProt O75747)"}, "[14]": {"target": "RAF proto-oncogene serine/threonine-protein kinase (Homo sapiens) (UniProt P04049)"}, "[15]": {"target": "Inhibitor of nuclear factor kappa-B kinase subunit beta (Homo sapiens) (UniProt O14920)"}, "[16]": {"target": "STE20-like serine/threonine-protein kinase (Homo sapiens) (UniProt Q9H2G2)"}, "[17]": {"target": "Dual specificity mitogen-activated protein kinase kinase 2 (Homo sapiens) (UniProt P36507)", "sequence (P36507 whole entry)": "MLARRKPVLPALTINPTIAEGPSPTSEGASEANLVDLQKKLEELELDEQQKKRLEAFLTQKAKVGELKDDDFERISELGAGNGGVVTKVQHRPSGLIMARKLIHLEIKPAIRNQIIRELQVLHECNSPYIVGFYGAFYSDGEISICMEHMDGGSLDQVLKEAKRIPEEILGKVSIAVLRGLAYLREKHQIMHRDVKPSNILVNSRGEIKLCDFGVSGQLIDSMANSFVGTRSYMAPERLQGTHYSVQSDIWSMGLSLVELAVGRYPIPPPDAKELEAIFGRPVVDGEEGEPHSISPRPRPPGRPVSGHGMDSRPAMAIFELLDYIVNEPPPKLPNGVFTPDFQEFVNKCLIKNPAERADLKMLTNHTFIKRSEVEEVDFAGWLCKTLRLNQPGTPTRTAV"}, "[18]": {"target": "Mitogen-activated protein kinase 15 (Homo sapiens) (UniProt Q8TD08)"}, "[19]": {"target": "Cyclin-dependent kinase 9 (Homo sapiens) (UniProt P50750)", "sequence (P50750 whole entry)": "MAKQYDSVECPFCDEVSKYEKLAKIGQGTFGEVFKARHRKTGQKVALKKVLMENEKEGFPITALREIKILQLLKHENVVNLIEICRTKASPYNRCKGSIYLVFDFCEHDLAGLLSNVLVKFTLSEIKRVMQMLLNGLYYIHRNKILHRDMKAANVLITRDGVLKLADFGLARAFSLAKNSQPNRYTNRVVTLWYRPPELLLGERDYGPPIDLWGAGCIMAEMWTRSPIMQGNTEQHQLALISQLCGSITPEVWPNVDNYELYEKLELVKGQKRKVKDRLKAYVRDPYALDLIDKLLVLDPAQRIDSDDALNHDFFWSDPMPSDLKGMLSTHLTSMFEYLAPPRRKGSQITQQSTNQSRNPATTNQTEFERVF"}, "[20]": {"target": "Mitogen-activated protein kinase kinase kinase 5 (Homo sapiens) (UniProt Q99683)"}, "[21]": {"target": "Serine/threonine-protein kinase NIM1 (Homo sapiens) (UniProt Q8IY84)", "sequence (Q8IY84 whole entry)": "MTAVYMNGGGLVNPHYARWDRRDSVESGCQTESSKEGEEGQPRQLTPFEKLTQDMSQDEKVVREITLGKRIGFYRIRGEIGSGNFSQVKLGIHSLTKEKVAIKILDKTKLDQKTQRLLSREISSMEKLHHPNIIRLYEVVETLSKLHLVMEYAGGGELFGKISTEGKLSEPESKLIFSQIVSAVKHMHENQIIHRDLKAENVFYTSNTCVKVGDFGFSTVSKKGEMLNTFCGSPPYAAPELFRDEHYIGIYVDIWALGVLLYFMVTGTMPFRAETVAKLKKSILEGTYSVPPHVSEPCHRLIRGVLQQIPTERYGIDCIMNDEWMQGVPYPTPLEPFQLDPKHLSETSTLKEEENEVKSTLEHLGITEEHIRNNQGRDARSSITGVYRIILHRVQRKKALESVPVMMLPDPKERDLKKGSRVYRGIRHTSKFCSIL"}, "[22]": {"target": "Calcium/calmodulin-dependent protein kinase type 1D (Homo sapiens) (UniProt Q8IU85)"}, "[23]": {"target": "Cyclin-dependent kinase 5 (Homo sapiens) (UniProt Q00535)"}, "[24]": {"target": "Serine/threonine-protein kinase 16 (Homo sapiens) (UniProt O75716)"}, "[25]": {"target": "Tyrosine-protein kinase Fer (Homo sapiens) (UniProt P16591)"}, "[26]": {"tested_on": "Proto-oncogene tyrosine-protein kinase receptor Ret (Homo sapiens), P07949 [M918T]"}, "[27]": {"target": "Activin receptor type-1 (Homo sapiens) (UniProt Q04771)", "sequence (Q04771 whole entry)": "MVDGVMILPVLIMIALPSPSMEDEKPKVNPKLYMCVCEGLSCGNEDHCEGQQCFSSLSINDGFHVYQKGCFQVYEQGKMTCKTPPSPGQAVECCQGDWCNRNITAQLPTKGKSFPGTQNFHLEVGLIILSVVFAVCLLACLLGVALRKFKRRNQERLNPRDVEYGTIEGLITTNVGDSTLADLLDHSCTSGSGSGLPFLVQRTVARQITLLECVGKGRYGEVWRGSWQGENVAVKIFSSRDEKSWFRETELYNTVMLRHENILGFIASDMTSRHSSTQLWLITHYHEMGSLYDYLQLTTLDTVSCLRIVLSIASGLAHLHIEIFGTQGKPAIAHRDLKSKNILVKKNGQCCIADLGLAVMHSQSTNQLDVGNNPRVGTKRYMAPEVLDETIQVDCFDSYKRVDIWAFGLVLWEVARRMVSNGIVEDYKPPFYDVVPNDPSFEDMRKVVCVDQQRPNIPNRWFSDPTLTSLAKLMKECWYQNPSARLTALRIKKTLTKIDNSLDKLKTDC"}, "[28]": {"target": "Leukocyte tyrosine kinase receptor (Homo sapiens) (UniProt P29376)"}, "[29]": {"target": "Receptor-interacting serine/threonine-protein kinase 4 (Homo sapiens) (UniProt P57078)"}, "[30]": {"target": "Platelet-derived growth factor receptor beta (Homo sapiens) (UniProt P09619)"}, "[31]": {"target": "Dual specificity tyrosine-phosphorylation-regulated kinase 1B (Homo sapiens) (UniProt Q9Y463)", "sequence (Q9Y463 whole entry, looked up)": "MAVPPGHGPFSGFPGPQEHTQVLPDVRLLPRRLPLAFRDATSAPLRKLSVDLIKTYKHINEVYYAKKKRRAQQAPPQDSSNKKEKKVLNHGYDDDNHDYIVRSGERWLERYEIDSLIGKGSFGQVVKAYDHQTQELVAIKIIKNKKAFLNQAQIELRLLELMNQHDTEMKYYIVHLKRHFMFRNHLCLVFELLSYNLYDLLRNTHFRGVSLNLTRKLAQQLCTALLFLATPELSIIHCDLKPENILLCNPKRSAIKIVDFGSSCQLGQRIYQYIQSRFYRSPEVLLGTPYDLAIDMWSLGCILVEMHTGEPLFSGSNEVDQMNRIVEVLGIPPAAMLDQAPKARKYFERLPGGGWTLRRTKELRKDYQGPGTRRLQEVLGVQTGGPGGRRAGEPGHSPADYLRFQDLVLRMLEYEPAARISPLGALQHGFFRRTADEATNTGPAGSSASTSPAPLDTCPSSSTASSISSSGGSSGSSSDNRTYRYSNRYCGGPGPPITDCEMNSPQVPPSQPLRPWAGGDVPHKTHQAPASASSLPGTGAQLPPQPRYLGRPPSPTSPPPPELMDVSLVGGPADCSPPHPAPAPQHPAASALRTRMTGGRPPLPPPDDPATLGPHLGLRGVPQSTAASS"}, "[32]": {"target": "Serine/threonine-protein kinase 17B (Homo sapiens) (UniProt O94768)"}, "[33]": {"target": "Serine/threonine-protein kinase 38-like (Homo sapiens, UniProt Q9Y2H1)"}, "[34]": {"target": "Casein kinase I isoform gamma-2 (Homo sapiens) (UniProt P78368)", "sequence (P78368 whole entry, looked up, canonical isoform)": "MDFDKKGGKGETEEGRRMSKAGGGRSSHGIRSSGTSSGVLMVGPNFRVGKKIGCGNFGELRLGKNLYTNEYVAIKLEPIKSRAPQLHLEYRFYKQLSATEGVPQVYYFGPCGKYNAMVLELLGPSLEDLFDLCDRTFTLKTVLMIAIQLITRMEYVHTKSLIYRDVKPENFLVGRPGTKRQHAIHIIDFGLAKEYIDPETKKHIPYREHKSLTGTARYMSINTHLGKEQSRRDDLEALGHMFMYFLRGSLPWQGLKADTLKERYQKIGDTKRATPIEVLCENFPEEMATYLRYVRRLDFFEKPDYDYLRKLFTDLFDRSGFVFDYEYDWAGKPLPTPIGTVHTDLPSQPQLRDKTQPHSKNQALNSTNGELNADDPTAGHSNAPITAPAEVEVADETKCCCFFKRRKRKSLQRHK"}, "[35]": {"target": "Mitogen-activated protein kinase 12 (Homo sapiens) (UniProt P53778)"}, "[36]": {"tested_on": "Receptor-type tyrosine-protein kinase FLT3 (Homo sapiens), P36888 [K663Q]"}, "[37]": {"target": "BMP-2-inducible protein kinase (Homo sapiens) (UniProt Q9NSY1)"}, "[38]": {"target": "Serine/threonine-protein kinase Nek11 (Homo sapiens) (UniProt Q8NG66)"}, "[39]": {"target": "Phosphatidylinositol 4,5-bisphosphate 3-kinase catalytic subunit alpha isoform (Homo sapiens) (UniProt P42336)"}, "[40]": {"target": "Serine/threonine-protein kinase TAO1 (Homo sapiens) (UniProt Q7L7X3)"}, "[41]": {"target": "Serine/threonine-protein kinase ICK (Homo sapiens) (UniProt Q9UPZ9)"}, "[42]": {"target": "Serine/threonine-protein kinase Sgk3 (Homo sapiens) (UniProt Q96BR1)", "sequence (Q96BR1 whole entry)": "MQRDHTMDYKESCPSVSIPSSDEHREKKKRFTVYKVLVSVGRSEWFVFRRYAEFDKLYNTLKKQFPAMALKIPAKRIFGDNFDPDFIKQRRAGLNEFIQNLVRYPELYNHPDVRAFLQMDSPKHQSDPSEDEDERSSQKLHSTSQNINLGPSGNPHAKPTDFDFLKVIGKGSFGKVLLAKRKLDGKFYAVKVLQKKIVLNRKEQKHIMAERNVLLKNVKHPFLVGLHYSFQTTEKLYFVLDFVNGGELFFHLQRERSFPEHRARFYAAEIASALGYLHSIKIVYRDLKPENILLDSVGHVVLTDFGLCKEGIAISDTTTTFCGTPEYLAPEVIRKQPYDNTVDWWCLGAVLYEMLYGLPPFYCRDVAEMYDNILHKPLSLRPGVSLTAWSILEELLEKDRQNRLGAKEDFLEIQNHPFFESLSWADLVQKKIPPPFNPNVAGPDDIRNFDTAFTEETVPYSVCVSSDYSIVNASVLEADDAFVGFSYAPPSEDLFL"}, "[43]": {"tested_on": "Phosphatidylinositol 4,5-bisphosphate 3-kinase catalytic subunit alpha isoform (Homo sapiens), P42336 [C420R]"}, "[44]": {"target": "Tyrosine-protein kinase receptor UFO (Homo sapiens) (UniProt P30530)"}, "[45]": {"target": "Dual specificity protein kinase CLK2 (Homo sapiens) (UniProt P49760)"}}}
{"molecule": "CS(=O)(=O)N1CCCC(NC(=O)[C@H](CCC2CCCCC2)NC(=O)c2ccc(CNC(=O)c3cnc4ccccn34)cc2)C1", "note": "(stereo not given in full) [SR-302]", "values": [{"measurement": "residual activity", "setting": "[1]", "result": 84, "unit": "%"}, {"measurement": "residual activity", "setting": "[2]", "result": 100, "unit": "%"}, {"measurement": "residual activity", "setting": "[3]", "result": 99, "unit": "%"}, {"measurement": "residual activity", "setting": "[4]", "result": 100, "unit": "%"}, {"measurement": "residual activity", "setting": "[5]", "result": 79, "unit": "%"}, {"measurement": "residual activity", "setting": "[6]", "result": 47, "unit": "%"}, {"measurement": "residual activity", "setting": "[7]", "result": 55, "unit": "%"}, {"measurement": "residual activity", "setting": "[8]", "result": 100, "unit": "%"}, {"measurement": "residual activity", "setting": "[9]", "result": 100, "unit": "%"}, {"measurement": "residual activity", "setting": "[10]", "result": 96, "unit": "%"}, {"measurement": "residual activity", "setting": "[11]", "result": 96, "unit": "%"}, {"measurement": "residual activity", "setting": "[12]", "result": 84, "unit": "%"}, {"measurement": "residual activity", "setting": "[13]", "result": 100, "unit": "%"}, {"measurement": "residual activity", "setting": "[14]", "result": 61, "unit": "%"}, {"measurement": "residual activity", "setting": "[15]", "result": 100, "unit": "%"}, {"measurement": "residual activity", "setting": "[16]", "result": 99, "unit": "%"}, {"measurement": "residual activity", "setting": "[17]", "result": 100, "unit": "%"}, {"measurement": "residual activity", "setting": "[18]", "result": 100, "unit": "%"}, {"measurement": "residual activity", "setting": "[19]", "result": 100, "unit": "%"}, {"measurement": "residual activity", "setting": "[20]", "result": 100, "unit": "%"}, {"measurement": "residual activity", "setting": "[21]", "result": 64, "unit": "%"}, {"measurement": "residual activity", "setting": "[22]", "result": 88, "unit": "%"}, {"measurement": "residual activity", "setting": "[23]", "result": 100, "unit": "%"}, {"measurement": "residual activity", "setting": "[24]", "result": 100, "unit": "%"}, {"measurement": "residual activity", "setting": "[25]", "result": 99, "unit": "%"}, {"measurement": "residual activity", "setting": "[26]", "result": 93, "unit": "%"}, {"measurement": "residual activity", "setting": "[27]", "result": 70, "unit": "%"}, {"measurement": "residual activity", "setting": "[28]", "result": 100, "unit": "%"}, {"measurement": "residual activity", "setting": "[29]", "result": 92, "unit": "%"}, {"measurement": "residual activity", "setting": "[30]", "result": 100, "unit": "%"}, {"measurement": "residual activity", "setting": "[31]", "result": 100, "unit": "%"}, {"measurement": "residual activity", "setting": "[32]", "result": 83, "unit": "%"}, {"measurement": "residual activity", "setting": "[33]", "result": 40, "unit": "%"}, {"measurement": "residual activity", "setting": "[34]", "result": 70, "unit": "%"}, {"measurement": "residual activity", "setting": "[35]", "result": 100, "unit": "%"}, {"measurement": "residual activity", "setting": "[36]", "result": 100, "unit": "%"}, {"measurement": "residual activity", "setting": "[37]", "result": 92, "unit": "%"}, {"measurement": "residual activity", "setting": "[38]", "result": 94, "unit": "%"}, {"measurement": "residual activity", "setting": "[39]", "result": 86, "unit": "%"}, {"measurement": "residual activity", "setting": "[40]", "result": 88, "unit": "%"}, {"measurement": "residual activity", "setting": "[41]", "result": 100, "unit": "%"}, {"measurement": "residual activity", "setting": "[42]", "result": 74, "unit": "%"}, {"measurement": "residual activity", "setting": "[43]", "result": 93, "unit": "%"}, {"measurement": "residual activity", "setting": "[44]", "result": 96, "unit": "%"}, {"measurement": "residual activity", "setting": "[45]", "result": 98, "unit": "%"}]}
{"molecule": "CS(=O)(=O)N1CCCC(NC(=O)[C@H](CCC2CCCCC2)NC(=O)c2ccc(CNc3ncnc4c3nnn4-c3ccccc3)cc2)C1", "note": "(stereo not given in full) [SR-301]", "values": [{"measurement": "residual activity", "setting": "[1]", "result": 100, "unit": "%"}, {"measurement": "residual activity", "setting": "[2]", "result": 100, "unit": "%"}, {"measurement": "residual activity", "setting": "[3]", "result": 100, "unit": "%"}, {"measurement": "residual activity", "setting": "[4]", "result": 100, "unit": "%"}, {"measurement": "residual activity", "setting": "[5]", "result": 89, "unit": "%"}, {"measurement": "residual activity", "setting": "[6]", "result": 55, "unit": "%"}, {"measurement": "residual activity", "setting": "[7]", "result": 78, "unit": "%"}, {"measurement": "residual activity", "setting": "[8]", "result": 88, "unit": "%"}, {"measurement": "residual activity", "setting": "[9]", "result": 80, "unit": "%"}, {"measurement": "residual activity", "setting": "[10]", "result": 97, "unit": "%"}, {"measurement": "residual activity", "setting": "[11]", "result": 95, "unit": "%"}, {"measurement": "residual activity", "setting": "[12]", "result": 96, "unit": "%"}, {"measurement": "residual activity", "setting": "[13]", "result": 81, "unit": "%"}, {"measurement": "residual activity", "setting": "[14]", "result": 70, "unit": "%"}, {"measurement": "residual activity", "setting": "[15]", "result": 100, "unit": "%"}, {"measurement": "residual activity", "setting": "[16]", "result": 100, "unit": "%"}, {"measurement": "residual activity", "setting": "[17]", "result": 90, "unit": "%"}, {"measurement": "residual activity", "setting": "[18]", "result": 100, "unit": "%"}, {"measurement": "residual activity", "setting": "[19]", "result": 87, "unit": "%"}, {"measurement": "residual activity", "setting": "[20]", "result": 100, "unit": "%"}, {"measurement": "residual activity", "setting": "[21]", "result": 60, "unit": "%"}, {"measurement": "residual activity", "setting": "[22]", "result": 97, "unit": "%"}, {"measurement": "residual activity", "setting": "[23]", "result": 94, "unit": "%"}, {"measurement": "residual activity", "setting": "[24]", "result": 100, "unit": "%"}, {"measurement": "residual activity", "setting": "[25]", "result": 86, "unit": "%"}, {"measurement": "residual activity", "setting": "[26]", "result": 93, "unit": "%"}, {"measurement": "residual activity", "setting": "[27]", "result": 88, "unit": "%"}, {"measurement": "residual activity", "setting": "[28]", "result": 100, "unit": "%"}, {"measurement": "residual activity", "setting": "[29]", "result": 100, "unit": "%"}, {"measurement": "residual activity", "setting": "[30]", "result": 86, "unit": "%"}, {"measurement": "residual activity", "setting": "[31]", "result": 100, "unit": "%"}, {"measurement": "residual activity", "setting": "[32]", "result": 100, "unit": "%"}, {"measurement": "residual activity", "setting": "[33]", "result": 24, "unit": "%"}, {"measurement": "residual activity", "setting": "[34]", "result": 82, "unit": "%"}, {"measurement": "residual activity", "setting": "[35]", "result": 100, "unit": "%"}, {"measurement": "residual activity", "setting": "[36]", "result": 94, "unit": "%"}, {"measurement": "residual activity", "setting": "[37]", "result": 84, "unit": "%"}, {"measurement": "residual activity", "setting": "[38]", "result": 100, "unit": "%"}, {"measurement": "residual activity", "setting": "[39]", "result": 98, "unit": "%"}, {"measurement": "residual activity", "setting": "[40]", "result": 100, "unit": "%"}, {"measurement": "residual activity", "setting": "[41]", "result": 100, "unit": "%"}, {"measurement": "residual activity", "setting": "[42]", "result": 83, "unit": "%"}, {"measurement": "residual activity", "setting": "[43]", "result": 89, "unit": "%"}, {"measurement": "residual activity", "setting": "[44]", "result": 79, "unit": "%"}, {"measurement": "residual activity", "setting": "[45]", "result": 100, "unit": "%"}]}
